pIC50: −log10 of the molar value. Where a name gives a salt, the structure may show the parent alone.
Molecular target: human KDR protein in HEK-293 cells (Homo sapiens (Human), UniProt P35968)
Assay: KDR Cell Assay (phospho-KDR in HEK-293 cells expressing inducible KDR)
Type: cell-based
Settings: pKDR Cell HEK 10% FBS IC50, HEK-293 cells expressing inducible KDR, VEGF stimulated
Summary of the method: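 HEK-293 cells with inducible human KDR were treated with compound for 1 h in DMEM (0.25% DMSO final), then lysed. Phospho-KDR was quantified by Meso Scale immunoassay, expressed as percent of control, and IC50 taken where a 4-parameter logistic fit crossed 50 POC.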

human KDR protein in HEK-293 cells, sequence (P35968 20-1356): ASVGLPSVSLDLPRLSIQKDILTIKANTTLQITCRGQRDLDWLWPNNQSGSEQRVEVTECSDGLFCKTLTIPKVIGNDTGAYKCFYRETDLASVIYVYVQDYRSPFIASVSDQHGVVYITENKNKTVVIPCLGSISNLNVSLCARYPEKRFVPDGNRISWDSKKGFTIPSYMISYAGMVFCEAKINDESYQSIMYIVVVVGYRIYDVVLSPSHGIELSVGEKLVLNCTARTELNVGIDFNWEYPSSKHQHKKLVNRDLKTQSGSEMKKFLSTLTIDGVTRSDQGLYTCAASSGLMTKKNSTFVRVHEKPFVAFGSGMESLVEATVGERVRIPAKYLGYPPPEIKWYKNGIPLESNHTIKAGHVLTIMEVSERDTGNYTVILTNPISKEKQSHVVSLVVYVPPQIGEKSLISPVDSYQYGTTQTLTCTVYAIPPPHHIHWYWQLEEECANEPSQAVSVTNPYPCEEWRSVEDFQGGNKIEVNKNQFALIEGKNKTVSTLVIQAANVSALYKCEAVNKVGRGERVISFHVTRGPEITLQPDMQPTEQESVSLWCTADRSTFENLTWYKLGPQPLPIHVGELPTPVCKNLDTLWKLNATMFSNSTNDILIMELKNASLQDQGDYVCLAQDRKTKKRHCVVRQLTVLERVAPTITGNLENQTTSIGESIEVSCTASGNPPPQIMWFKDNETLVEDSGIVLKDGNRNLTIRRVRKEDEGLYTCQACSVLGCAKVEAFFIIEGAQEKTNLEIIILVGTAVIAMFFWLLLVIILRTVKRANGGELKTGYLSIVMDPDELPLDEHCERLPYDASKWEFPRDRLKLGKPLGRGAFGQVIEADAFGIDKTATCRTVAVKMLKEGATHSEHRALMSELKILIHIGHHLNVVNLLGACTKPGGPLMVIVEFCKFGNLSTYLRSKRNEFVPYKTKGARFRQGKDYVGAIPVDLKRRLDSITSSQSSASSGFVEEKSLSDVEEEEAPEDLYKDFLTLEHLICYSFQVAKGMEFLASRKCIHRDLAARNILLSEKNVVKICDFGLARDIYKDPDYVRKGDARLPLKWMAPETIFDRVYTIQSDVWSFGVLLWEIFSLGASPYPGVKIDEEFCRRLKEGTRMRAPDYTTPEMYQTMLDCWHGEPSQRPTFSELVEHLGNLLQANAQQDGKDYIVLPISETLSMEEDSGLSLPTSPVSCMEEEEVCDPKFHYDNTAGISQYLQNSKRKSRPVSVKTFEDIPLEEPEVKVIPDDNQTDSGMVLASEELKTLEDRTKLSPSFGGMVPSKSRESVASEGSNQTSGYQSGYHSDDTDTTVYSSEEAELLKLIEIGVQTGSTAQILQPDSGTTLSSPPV

pIC50 | Compound
6.76 | Cn1cc(-c2cc(-c3ccc(N4CCC5(CC4)CC(NC(=O)OC(C)(C)C)C5)nc3)c3c(C#N)cnn3c2)cn1 [Example 516, tert-butyl (7-(5-(3-cyano-6-(1-methyl-1H-pyrazol-4-yl)pyrazolo[1,5-a]pyridin-4-yl)pyridin-2-yl)-7-azaspiro[3.5]nonan-2-yl)carbamate]
6.17 | Cn1cc(-c2cc(-c3ccc(N4CCC5(CN(C(=O)OC(C)(C)C)C5)C4)nc3)c3c(C#N)cnn3c2)cn1 [Example 521, tert-butyl 6-(5-(3-cyano-6-(1-methyl-1H-pyrazol-4-yl)pyrazolo[1,5-a]pyridin-4-yl)pyridin-2-yl)-2,6-diazaspiro[3.4]octane-2-carboxylate]
5.72 | CO[C@](C(=O)N1CCN(c2ccc(-c3cc(-c4cnn(C)c4)cn4ncc(C#N)c34)cn2)CC1)(c1ccccc1)C(F)(F)F [Example 371, (S)-6-(1-methyl-1H-pyrazol-4-yl)-4-(6-(4-(3,3,3-trifluoro-2-methoxy-2-phenylpropanoyl)piperazin-1-yl)pyridin-3-yl)pyrazolo[1,5-a]pyridine-3-carbonitrile]
5.68 | Cn1cc(-c2cc(-c3ccc(N4CCC5(CCCN(C(=O)OC(C)(C)C)C5)CC4)nc3)c3c(C#N)cnn3c2)cn1 [Example 504, tert-Butyl 9-(5-(3-cyano-6-(1-methyl-1H-pyrazol-4-yl)pyrazolo[1,5-a]pyridin-4-yl)pyridine-2-yl)-2,9-diazaspiro[5.5]undecane-2-carboxylate]
8.54 | Cn1cc(-c2cc(-c3ccc(N4CCC(Oc5ccccc5)CC4)nc3)c3c(C#N)cnn3c2)cn1 [Example 508]
5.74 | CN(C)CC(=O)N1CC2(CCN(c3ccc(-c4cc(-c5cnn(C)c5)cn5ncc(C#N)c45)cn3)CC2)C1 [Example 494, 4-(6-(2-(2-(dimethylamino)acetyl)-2,7-diazaspiro[3.5]nonan-7-yl)pyridin-3-yl)-6-(1-methyl-1H-pyrazol-4-yl)pyrazolo[1,5-a]pyridine-3-carbonitrile]
6.52 | CC(C)N1CC(n2cc(-c3cc(-c4ccc(N5CCN(Cc6ccccc6)CC5)nc4)c4c(C#N)cnn4c3)cn2)C1 [Example 596, 4-(6-(4-benzylpiperazin-1-yl)pyridin-3-yl)-6-(1-(1-isopropylazetidin-3-yl)-1H-pyrazol-4-yl)pyrazolo[1,5-a]pyridine-3-carbonitrile]

Compound | pIC50
Cn1cc(-c2cc(-c3ccc(N4CCN(C5CCOC5)CC4)nc3)c3c(C#N)cnn3c2)cn1 (stereo not drawn) [Example 505, 6-(1-methyl-1H-pyrazol-4-yl)-4-(6-(4-(tetrahydrofuran-3-yl)piperazin-1-yl)pyridin-3-yl)pyrazolo[1,5-a]pyridine-3-carbonitrile bis(2,2,2-trifluoroacetate)] | 5.88

Same assay, conditions: pKDR Cell HEK 10% FBS IC50, HEK-293 cells expressing inducible KDR, VEGF stimulated, 10% FBS

pIC50 | Compound
6.24 | CC(C)[C@@H](O)C(=O)N1CC2(CCN(c3ccc(-c4cc(-c5cnn(C)c5)cn5ncc(C#N)c45)cn3)CC2)C1 [Example 216, (R)-4-(6-(2-(2-hydroxy-3-methylbutanoyl)-2,7-diazaspiro[3.5]nonan-7-yl)pyridin-3-yl)-6-(1-methyl-1H-pyrazol-4-yl)pyrazolo[1,5-a]pyridine-3-carbonitrile]
5.70 | Cn1cc(-c2cc(-c3ccc(N4CCN(C(=O)OC(C)(C)C)C5(CC5)C4)nc3)c3c(C#N)cnn3c2)cn1 [Example 166, tert-butyl 7-(5-(3-cyano-6-(1-methyl-1H-pyrazol-4-yl)pyrazolo[1,5-a]pyridin-4-yl)pyridin-2-yl)-4,7-diazaspiro[2.5]octane-4-carboxylate]
5.32 | Cn1cc(-c2cc(-c3ccc(N4CCC5(CC4)CN(C(=O)Cc4ccccc4)C5)nc3)c3c(C#N)cnn3c2)cn1 [Example 218, 6-(1-methyl-1H-pyrazol-4-yl)-4-(6-(2-(2-phenylacetyl)-2,7-diazaspiro[3.5]nonan-7-yl)pyridin-3-yl)pyrazolo[1,5-a]pyridine-3-carbonitrile]
7.00 | Cn1cc(-c2cc(-c3ccc(N4CCN(C(=O)C[C@H](O)c5ccccc5)CC4)nc3)c3c(C#N)cnn3c2)cn1 [Example 8, (S)-4-(6-(4-(3-hydroxy-3-phenylpropanoyl)piperazin-1-yl)pyridin-3-yl)-6-(1-methyl-1H-pyrazol-4-yl)pyrazolo[1,5-a]pyridine-3-carbonitrile]
5.94 | CN(C)C(=O)N1CCN(c2ccc(-c3cc(-c4cnn(C)c4)cn4ncc(C#N)c34)cn2)CC1 [Example 132, 4-(5-(3-cyano-6-(1-methyl-1H-pyrazol-4-yl)pyrazolo[1,5-a]pyridin-4-yl)pyridin-2-yl)-N,N-dimethylpiperazine-1-carboxamide]
5.86 | Cn1cc(-c2cc(-c3ccc(N4CCN(C(=O)N[C@@H]5CCOC5)CC4)nc3)c3c(C#N)cnn3c2)cn1 [Example 106, (R)-4-(5-(3-cyano-6-(1-methyl-1H-pyrazol-4-yl)pyrazolo[1,5-a]pyridin-4-yl)pyridin-2-yl)-N-(tetrahydrofuran-3-yl)piperazine-1-carboxamide]
6.37 | Cn1cc(-c2cc(-c3ccc(N4CCC5(CCN(C(=O)OC(C)(C)C)C5)CC4)nc3)c3c(C#N)cnn3c2)cn1 [Example 204, tert-butyl 8-(5-(3-cyano-6-(1-methyl-1H-pyrazol-4-yl)pyrazolo[1,5-a]pyridin-4-yl)pyridin-2-yl)-2,8-diazaspiro[4.5]decane-2-carboxylate]
5.91 | Cn1cc(-c2cc(-c3ccc(N4CCC(C(=O)N5CCCC5)CC4)nc3)c3c(C#N)cnn3c2)cn1 [Example 248, 6-(1-methyl-1H-pyrazol-4-yl)-4-(6-(4-(pyrrolidine-1-carbonyl)piperidin-1-yl)pyridin-3-yl)pyrazolo[1,5-a]pyridine-3-carbonitrile]
5.87 | Cn1cc(-c2cc(-c3ccc(N4CCN(C(=O)NC5CCOCC5)CC4)nc3)c3c(C#N)cnn3c2)cn1 [Example 121, 4-(5-(3-cyano-6-(1-methyl-1H-pyrazol-4-yl)pyrazolo[1,5-a]pyridin-4-yl)pyridin-2-yl)-N-(tetrahydro-2H-pyran-4-yl)piperazine-1-carboxamide]
6.45 | Cn1cc(-c2cc(-c3ccc(N4CCN(C(=O)N5CCC6(CC6)C5)CC4)nc3)c3c(C#N)cnn3c2)cn1 [Example 117, 4-(6-(4-(5-azaspiro[2.4]heptane-5-carbonyl)piperazin-1-yl)pyridin-3-yl)-6-(1-methyl-1H-pyrazol-4-yl)pyrazolo[1,5-a]pyridine-3-carbonitrile]

Compound | pIC50
Cn1cc(-c2cc(-c3ccc(N4[C@@H]5CC[C@H]4C[C@@H](O)C5)nc3)c3c(C#N)cnn3c2)cn1 [Example 199, 4-(6-((1R,3r,5S)-3-hydroxy-8-azabicyclo[3.2.1]octan-8-yl)pyridin-3-yl)-6-(1-methyl-1H-pyrazol-4-yl)pyrazolo[1,5-a]pyridine-3-carbonitrile] | 6.25
Cn1cc(-c2cc(-c3ccc(N4CCN(C(=O)NC5CC5)CC4)nc3)c3c(C#N)cnn3c2)cn1 [Example 131, 4-(5-(3-cyano-6-(1-methyl-1H-pyrazol-4-yl)pyrazolo[1,5-a]pyridin-4-yl)pyridin-2-yl)-N-cyclopropylpiperazine-1-carboxamide 2,2,2-trifluoroacetate] | 6.35
Cn1cc(-c2cc(-c3ccc(N4CC5CCC(C4)N5)nc3)c3c(C#N)cnn3c2)cn1 [Example 174, 4-(6-(3,8-diazabicyclo[3.2.1]octan-3-yl)pyridin-3-yl)-6-(1-methyl-1H-pyrazol-4-yl)pyrazolo[1,5-a]pyridine-3-carbonitrile dihydrochloride] | 5.91

— patent US10023570B2 (Array BioPharma, Inc., priority 2015, dated 2018)
